Our source for the melting point and pest or weed control values is patent US20220030867A1 (priority 2018, published 2022).

Series [1] concerns Fusarium culmorum. Nature of the series: whole plant or invertebrate. In kind it is in vivo, Fusarium culmorum on wheat spikelets cv. Monsun. As to conditions: in Triticum aestivum, read-out: control of Fusarium culmorum.
The test system of series [2] is Magnaporthe grisea (Pyricularia oryzae). Briefly: whole plant or invertebrate. In kind it is in vivo, Magnaporthe grisea on rice leaf segments cv. Ballila. Particulars: foliar, read-out: control of Magnaporthe grisea.

SMILES strings stand for the structures.

For the compound `CC(Cc1ccccc1)(CC(F)(F)F)C(=O)Nc1cnc2c(Cl)cccc2c1` (stereo not drawn) [Compound E-51, 2-benzyl-N-(8-chloro-3-quinolyl)-4,4,4-trifluoro-2-methyl-butanamide], the melting point – broadly, the temperature of the solid-liquid transition – lay within 104 to 106 °C. The pest or weed control at 200 ppm in series [1] is no less than 80%.
In turn, `O=C(Nc1cnc2c(F)cccc2c1)C(Cc1ccccc1)CC(F)(F)F` (stereo not drawn) [Compound E-82, 2-benzyl-4,4,4-trifluoro-N-(8-fluoro-3-quinolyl)butanamide] came in with a melting point of 161 to 164 °C. Besides, the pest or weed control at 200 ppm in series [1] was no less than 80%.
Consider `Cc1nc2c(Cl)cccc2cc1NC(=O)C(C)(Cc1ccccc1)CC(C)C` (stereo not drawn) [Compound E-13, 2-benzyl-N-(8-chloro-2-methyl-3-quinolyl)-2,4-dimethyl-pentanamide], for which the melting point lay within 99 to 100 °C. Further, in series [2], the pest or weed control at 200 ppm was no less than 80%.
For the compound `C=C(C)C[C@](C)(Cc1ccccc1)C(=O)Nc1cnc2c(F)cccc2c1C` [Compound F-6, (2R)-2-benzyl-N-(8-fluoro-4-methyl-3-quinolyl)-2,4-dimethyl-pent-4-enamide], the pest or weed control at 200 ppm in series [1] and in series [2] was no less than 80% each time.
The compound `C=C(F)CC(C)(Cc1ccccc1)C(=O)Nc1cnc2c(F)cccc2c1` (stereo not drawn) [Compound E-71, 2-benzyl-4-fluoro-N-(8-fluoro-3-quinolyl)-2-methyl-pent-4-enamide] yielded a melting point of 132 to 134 °C. The pest or weed control at 200 ppm in series [1] was no less than 80%.
Regarding `C=C(C)C[C@](C)(Cc1ccccc1)C(=O)Nc1cc2cccc(F)c2nc1C` [Compound F-2, (2R)-2-benzyl-N-(8-fluoro-2-methyl-3-quinolyl)-2,4-dimethyl-pent-4-enamide], the pest or weed control at 200 ppm in series [1] and in series [2] was no less than 80% throughout.
`Cc1nc2c(F)cccc2cc1NC(=O)[C@](C)(Cc1ccccc1)CC(F)(F)F` [Compound F-11, (2R)-2-benzyl-4,4,4-trifluoro-N-(8-fluoro-2-methyl-3-quinolyl)-2-methyl-butanamide]: the pest or weed control at 200 ppm in series [1] and in series [2] was no less than 80% each time.
Take `O=C(Nc1cnc2c(F)cccc2c1)C(Cc1ccccc1)CC(F)(F)Cl` (stereo not drawn) [Compound E-58, 2-benzyl-4-chloro-4,4-difluoro-N-(8-fluoro-3-quinolyl)butanamide]: the melting point lay in the range of 65 to 70 °C. The pest or weed control at 200 ppm in series [1] was no less than 80%.
On to `C=C(C)CC(CC)(Cc1ccccc1)C(=O)Nc1cnc2c(F)cccc2c1` (stereo not drawn) [Compound E-46, 2-benzyl-2-ethyl-N-(8-fluoro-3-quinolyl)-4-methyl-pent-4-enamide], for which the pest or weed control at 200 ppm in series [2] was no less than 80%.
With `Cc1c(NC(=O)C(Cc2ccccc2)CC(C)C)cnc2c(F)cccc12` (stereo not drawn) [Compound E-19, 2-benzyl-N-(8-fluoro-4-methyl-3-quinolyl)-4-methyl-pentanamide], the pest or weed control at 200 ppm in series [1] and in series [2] was no less than 80% in each case.
Regarding `Cc1nc2c(F)cccc2cc1NC(=O)[C@@](C)(Cc1ccccc1)CC(F)(F)F` [Compound F-12, (2S)-2-benzyl-4,4,4-trifluoro-N-(8-fluoro-2-methyl-3-quinolyl)-2-methyl-butanamide], the pest or weed control at 200 ppm in series [1] and in series [2] was no less than 80% throughout.
For `COC(Cc1ccccc1)(CC(C)C)C(=O)Nc1cnc2c(F)cccc2c1` (stereo not drawn) [Compound E-38, 2-benzyl-N-(8-fluoro-3-quinolyl)-2-methoxy-4-methyl-pentanamide], the melting point lay within 133 to 135 °C. Also, in series [1], the pest or weed control at 200 ppm is no less than 80%.
Taken in the same sequence, the figures for `C/C=C\CC(C)(Cc1ccccc1)C(=O)Nc1cnc2c(F)cccc2c1` (stereo not drawn) [Compound E-28, (Z)-2-benzyl-N-(8-fluoro-3-quinolyl)-2-methyl-hex-4-enamide] were 128 to 130 °C and no less than 80%.
Turning to `C=C(Cl)CC(C)(Cc1ccccc1)C(=O)Nc1cnc2c(F)cccc2c1` (stereo not drawn) [Compound E-53, 2-benzyl-4-chloro-N-(8-fluoro-3-quinolyl)-2-methyl-pent-4-enamide], the melting point lay in the range of 148 to 150 °C. The pest or weed control at 200 ppm in series [1] is no less than 80%.
Taken in the same sequence, the figures for `C=C(C)CC(C)(Cc1ccccc1)C(=O)Nc1cnc2c(F)cccc2c1` (stereo not drawn) [Compound E-74, 2-benzyl-N-(8-fluoro-3-quinolyl)-2,4-dimethyl-pent-4-enamide] were 147 to 149 °C and no less than 80%.
In the case of `Cc1nc2c(F)cccc2cc1NC(=O)C(C)(Cc1cccc(F)c1)CC(F)(F)F` (stereo not drawn) [Compound E-8, 4,4,4-trifluoro-N-(8-fluoro-2-methyl-3-quinolyl)-2-[(3-fluorophenyl)methyl]-2-methyl-butanamide], the pest or weed control at 200 ppm in series [1] and in series [2] was no less than 80% each time.
Turning to `CC(C)(C)C(Cc1ccccc1)C(=O)Nc1cnc2c(F)cccc2c1` (stereo not drawn) [Compound E-88, 2-benzyl-N-(8-fluoro-3-quinolyl)-3,3-dimethyl-butanamide], the melting point lay within 212 to 215 °C. Further, the pest or weed control at 200 ppm in series [1] is no less than 80%.
On to `Cc1cccc2cc(NC(=O)C(C)(Cc3ccccc3)CC(F)(F)F)cnc12` (stereo not drawn) [Compound E-59, 2-benzyl-4,4,4-trifluoro-2-methyl-N-(8-methyl-3-quinolyl)-butanamide], for which the melting point is 123 to 125 °C. The pest or weed control at 200 ppm in series [1] was no less than 80%.
With `CC(Cc1ccccc1)(CC(F)(F)F)C(=O)Nc1cnc2c(F)c(F)ccc2c1` (stereo not drawn) [Compound E-60, 2-benzyl-N-(7,8-difluoro-3-quinolyl)-4,4,4-trifluoro-2-methyl-butanamide], the melting point was in the range of 183 to 186 °C. For the same compound, the pest or weed control at 200 ppm in series [1] was no less than 80%.
Regarding `C=C(C)C[C@@](C)(Cc1ccccc1)C(=O)Nc1cc2cccc(F)c2nc1C` [Compound F-1, (2S)-2-benzyl-N-(8-fluoro-2-methyl-3-quinolyl)-2,4-dimethyl-pent-4-enamide], the pest or weed control at 200 ppm in series [1] and in series [2] was no less than 80% in each case.
Compound `CC(C)CC(C)(Cc1ccccc1)C(=O)Nc1cnc2c(F)cccc2c1` (stereo not drawn) [Compound E-87, 2-benzyl-N-(8-fluoro-3-quinolyl)-2,4-dimethyl-pentanamide] registered a melting point of 140 to 142 °C. In addition, the pest or weed control at 200 ppm in series [1] is no less than 80%.
On to `C=C(C)CC(C)(Cc1ccccc1)C(=O)Nc1cnc2c(Br)cccc2c1` (stereo not drawn) [Compound E-63, 2-benzyl-N-(8-bromo-3-quinolyl)-2,4-dimethyl-pent-4-enamide], for which the melting point is 165 to 169 °C. The pest or weed control at 200 ppm in series [1] is no less than 80%.
For `CC(Cc1ccc(F)cc1)(CC(F)(F)F)C(=O)Nc1cnc2c(F)cccc2c1` (stereo not drawn) [Compound E-18, 4,4,4-trifluoro-2-[(4-fluorophenyl)methyl]-N-(8-fluoro-3-quinolyl)-2-methyl-butanamide], in series [2], the pest or weed control at 200 ppm is no less than 80%.
On to `CC(Cc1ccccc1)(CC(F)(F)F)C(=O)Nc1cnc2c(F)cccc2c1` (stereo not drawn) [Compound E-80, 2-benzyl-4,4,4-trifluoro-N-(8-fluoro-3-quinolyl)-2-methyl-butanamide], for which the pest or weed control at 200 ppm in series [1] and in series [2] was no less than 80% throughout.
`CC(Cc1ccccc1)(CC1(F)CC1)C(=O)Nc1cnc2c(F)cccc2c1` (stereo not drawn) [Compound E-25, 2-benzyl-3-(1-fluorocyclopropyl)-N-(8-fluoro-3-quinolyl)-2-methyl-propanamide] had a melting point of 162 to 164 °C. Further, the pest or weed control at 200 ppm in series [1] is no less than 80%.
Turning to `Cc1nc2c(F)cccc2cc1NC(=O)C(Cc1ccccc1)CC(F)(F)F` (stereo not drawn) [Compound E-44, 2-benzyl-4,4,4-trifluoro-N-(8-fluoro-2-methyl-3-quinolyl)-butanamide], the pest or weed control at 200 ppm in series [1] and in series [2] was no less than 80% in each case.
Consider `COC(C)(Cc1ccccc1)C(=O)Nc1cnc2c(F)cccc2c1` (stereo not drawn) [Compound E-43, N-(8-fluoro-3-quinolyl)-2-methoxy-2-methyl-3-phenyl-propanamide], for which the melting point lay in the range of 107 to 109 °C. The pest or weed control at 200 ppm in series [1] is no less than 80%.
Take `CC1(C[C@](C)(Cc2ccccc2)C(=O)Nc2cnc3c(F)cccc3c2)CC1` [Compound F-9, (2R)-2-benzyl-N-(8-fluoro-3-quinolyl)-2-methyl-3-(1-methylcyclopropyl)propanamide]: the pest or weed control at 200 ppm in series [1] and in series [2] was no less than 80% throughout.
`CC(C)=CC(C)(Cc1ccccc1)C(=O)Nc1cnc2c(F)cccc2c1` (stereo not drawn) [Compound E-48, 2-benzyl-N-(8-fluoro-3-quinolyl)-2,4-dimethyl-pent-3-enamide]: the melting point was 167 to 169 °C. Further, the pest or weed control at 200 ppm in series [1] is no less than 80%.
`COC(Cc1ccccc1)(CC(C)C)C(=O)Nc1cc2cccc(F)c2nc1C` (stereo not drawn) [Compound E-37, 2-benzyl-N-(8-fluoro-2-methyl-3-quinolyl)-2-methoxy-4-methyl-pentanamide] gave a melting point of 92 to 94 °C. Besides, the pest or weed control at 200 ppm in series [1] is no less than 80%.
Consider `C=C(CC)CC(C)(Cc1ccccc1)C(=O)Nc1cnc2c(F)cccc2c1` (stereo not drawn) [Compound E-54, 2-benzyl-N-(8-fluoro-3-quinolyl)-2-methyl-4-methylene-hexanamide], for which the melting point was in the range of 118 to 120 °C.
Turning to `C=C(C)CC(C)(Cc1ccccc1)C(=O)Nc1cnc2c(F)cccc2c1C` (stereo not drawn) [Compound E-65, 2-benzyl-N-(8-fluoro-4-methyl-3-quinolyl)-2,4-dimethyl-pent-4-enamide], the melting point lay within 105 to 109 °C.
Turning to `C=C(C)CC(C)(Cc1cccc(F)c1)C(=O)Nc1cc2cccc(F)c2nc1C` (stereo not drawn) [Compound E-12, N-(8-fluoro-2-methyl-3-quinolyl)-2-[(3-fluorophenyl)methyl]-2,4-dimethyl-pent-4-enamide], the melting point is 124 to 126 °C.
As for `CC(F)(F)CC(C)(Cc1ccccc1)C(=O)Nc1cnc2c(F)cccc2c1` (stereo not drawn) [Compound E-68, 2-benzyl-4,4-difluoro-N-(8-fluoro-3-quinolyl)-2-methyl-pentanamide], the melting point lay in the range of 156 to 158 °C. In addition, the pest or weed control at 200 ppm in series [1] was no less than 80%.
